Data: paper PMC7071076, “Antibacterial Activity and Pharmacokinetic Profile of a Promising Antibacterial Agent: 22-(2-Amino-phenylsulfanyl)-22-Deoxypleuromutilin” (Molecules, 2020)

Columns and labels:
[1] = tested on: MRSA ATCC 43300; test: Constant concentration time-kill curves; assay type: cell-based, Staphylococcus aureus
Description: Time–kill curve experiments were performed in triplicate according previous report. In this experiment, MRSA, in logarithmic phase, was diluted to 10^6 CFU/mL with MH broth. […] The mixtures and control which was free of drug were cultured at 37 °C with shaking. A total of 20 µL aliquots from solutions were serially diluted 10-fold in 0.9% saline, at different time intervals (0, 3, 6, 9, and 24 h). Then the dilutions were plated onto MH agar medium and incubated at 37 °C for 18–24 h. The bacterial colonies were counted, and results were represented as the logarithm of the colony numbers. The time-kill curve was constructed by plotting log CFU/mL versus time.

[2] = tested on: MRSA ATCC 43300; test: MRSA wound infection model: wound bacterial burden; assay type: in vivo, mice
Description: (§1) Six weeks SPF-ICR female mice were used for this study. The Experimental model, inducted of inflammatory in mice by skin excision, was established referring to existing methods with some alterations. The mice were anesthetized with the intravenous injection of 1% sodium pentobarbital. After their hair on the back was shaved, the mice were anesthetized and the back skin was perforated with a biopsy perforator at a depth of fascia injury. The inoculum (50 μL), containing 10^9 CFU/mL of the indicated microorganism (MRSA ATCC 43300), was applied on the wound for three times at 30 min intervals. 100 μL drug (3 mg/mL) was administrated on the wound at 1 h after inoculation for three consecutive days. A total of 100 μL blank matrix was given to the infected control group and the non-infected group in the same way. The wound was wrapped with sterile gauze. During the treatment, all mice were kept individually and free to eat and drink.
At the end of the examination, mice were anesthetized and killed. Tissue samples, reaching to the muscle membrane, were removed from the middle of the wound surface and homogenized in 0.9% saline. Serially diluted aliquots of homogenate were cultured on high-salt mannitol agar plate at 37 °C for 24 h. The log of the colony number was used for statistical analysis.

[3] = tested on: MRSA ATCC 43300; test: MRSA wound infection model: wound size; assay type: in vivo, mice; details: after treatment for three days; 100 μL drug (3 mg/mL) on the wound
Description: as §1
The wounds were examined on day 1 and days 3 after treatment. The area of wound were measured according to previous reports with some modifications. In each group, six mice were taken out and anesthetized to take photos and measure the size of the wound as the results.

Compound: C=C[C@]1(C)C[C@@H](OC(=O)CSc2ccccc2N)[C@]2(C)[C@H](C)CC[C@]3(CCC(=O)[C@H]32)[C@@H](C)[C@@H]1O [Amphenmulin, 22-(2-amino-phenylsulfanyl)-22-deoxypleuromutilin]
- colony numbers of MRSA ([1]; 0.5×MIC, 3 h): 7.17±0.08 log CFU/mL
- colony numbers of MRSA ([1]; 0.5×MIC, 6 h): 7.83±0.16 log CFU/mL
- colony numbers of MRSA ([1]; 0.5×MIC, 9 h): 8.22±0.15 log CFU/mL
- colony numbers of MRSA ([1]; 0.5×MIC, 24 h): 8.33±0.10 log CFU/mL
- colony numbers of MRSA ([1]; 1×MIC, 3 h): 6.84±0.08 log CFU/mL
- colony numbers of MRSA ([1]; 1×MIC, 6 h): 7.44±0.06 log CFU/mL
- colony numbers of MRSA ([1]; 1×MIC, 9 h): 7.86±0.13 log CFU/mL
- colony numbers of MRSA ([1]; 1×MIC, 24 h): 7.70±0.46 log CFU/mL
- colony numbers of MRSA ([1]; 2×MIC, 3 h): 6.43±0.13 log CFU/mL
- colony numbers of MRSA ([1]; 2×MIC, 6 h): 6.56±0.23 log CFU/mL
- colony numbers of MRSA ([1]; 2×MIC, 9 h): 7.07±0.42 log CFU/mL
- colony numbers of MRSA ([1]; 2×MIC, 24 h): 7.26±0.62 log CFU/mL
- colony numbers of MRSA ([1]; 4×MIC, 3 h): 5.96±0.66 log CFU/mL
- colony numbers of MRSA ([1]; 4×MIC, 6 h): 6.13±0.06 log CFU/mL
- colony numbers of MRSA ([1]; 4×MIC, 9 h): 5.77±0.15 log CFU/mL
- colony numbers of MRSA ([1]; 4×MIC, 24 h): 4.04±0.58 log CFU/mL
- colony numbers of MRSA ([1]; 8×MIC, 3 h): 5.91±0.03 log CFU/mL
- colony numbers of MRSA ([1]; 8×MIC, 6 h): 5.98±0.09 log CFU/mL
- colony numbers of MRSA ([1]; 8×MIC, 9 h): 5.78±0.09 log CFU/mL
- colony numbers of MRSA ([1]; 8×MIC, 24 h): 3.55±0.16 log CFU/mL
- colony numbers of MRSA ([1]; 16×MIC, 3 h): 5.79±0.12 log CFU/mL
- colony numbers of MRSA ([1]; 16×MIC, 6 h): 5.77±0.15 log CFU/mL
- colony numbers of MRSA ([1]; 16×MIC, 9 h): 5.64±0.11 log CFU/mL
- colony numbers of MRSA ([1]; 16×MIC, 24 h): 2.97±0.06 log CFU/mL
- colony numbers of MRSA ([1]; 32×MIC, 3 h): 5.60±0.18 log CFU/mL
- colony numbers of MRSA ([1]; 32×MIC, 6 h): 5.91±0.56 log CFU/mL
- colony numbers of MRSA ([1]; 32×MIC, 9 h): 5.11±0.36 log CFU/mL
- colony numbers of MRSA ([1]; 32×MIC, 24 h): 2.43±0.67 log CFU/mL
- type of antibacterial activity in time-kill curve ([1]; at the concentration of 4× MIC): bacteriostatic activity
- number of bacteria in wound tissue vs infected group ([2]; one day after treatment, p < 0.05): significant decrease
- number of bacteria in wound tissue ([2]; three days after treatment, 100 μL drug (3 mg/mL) on the wound): 4.47 ± 0.66 log10 CFU/mL
- wound area [3]: 0.47 ± 0.09 cm^2
